What all share (format): biochemical
For assay [1], the system named is human JAK1 (a.a. 837-1142) catalytic domain. As to the kind of experiment: In vitro JAK kinase assay (HTRF, 1 mM ATP), JAK1.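 Further: kinase activity followed as phosphorylation of a biotin-tagged peptide, detected by HTRF with Eu-labelled anti-phosphotyrosine antibody and SA-APC, after 1 h reaction at room temperature.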 The note with it: ratio of JAK2 IC50 to JAK1 IC50 at 1 mM ATP.
Description: (§1) The catalytic activity of JAK1, JAK2 or JAK3 was assayed by measuring the phosphorylation of a biotinylated peptide. The phosphorylated peptide was detected by homogenous time resolved fluorescence (HTRF). […] Reactions were carried out at room temperature for 1 hour and then stopped with 20 μL 45 mM EDTA, 300 nM SA-APC, 6 nM Eu-Py20 in assay buffer (Perkin Elmer, Boston, Mass.). Binding to the Europium labeled antibody took place for 40 minutes and HTRF signal was measured on a Fusion plate reader (Perkin Elmer, Boston, Mass.).
Assay [2] addresses human JAK1 (a.a. 837-1142) catalytic domain (Homo sapiens, UniProt P23458). The assay can be described thus: In vitro JAK kinase assay (HTRF, 1 mM ATP), JAK1.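 Further: kinase activity followed as phosphorylation of a biotin-tagged peptide, detected by HTRF with Eu-labelled anti-phosphotyrosine antibody and SA-APC, after 1 h reaction at room temperature.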 The note with it: at 1 mM ATP. On the technique in general: Time-resolved FRET reads energy transfer from a long-lived donor to a nearby acceptor.
Description: as §1
The target of assay [3] is human JAK2 (a.a. 828-1132) catalytic domain (Homo sapiens (Human), UniProt O60674). The assay can be described thus: In vitro JAK kinase assay (HTRF, 1 mM ATP), JAK2. The settings on record: at 1 mM ATP.
Chain of human JAK2 (a.a. 828-1132) catalytic domain (O60674 828-1132): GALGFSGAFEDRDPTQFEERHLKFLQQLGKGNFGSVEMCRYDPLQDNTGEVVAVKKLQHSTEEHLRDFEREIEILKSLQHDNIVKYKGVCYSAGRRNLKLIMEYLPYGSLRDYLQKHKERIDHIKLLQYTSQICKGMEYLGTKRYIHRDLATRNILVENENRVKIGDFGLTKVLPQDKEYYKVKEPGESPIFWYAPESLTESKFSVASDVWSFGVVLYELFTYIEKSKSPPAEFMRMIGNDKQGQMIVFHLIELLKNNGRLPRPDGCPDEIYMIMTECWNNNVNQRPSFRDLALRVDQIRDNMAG
Description: as §1

Chain of human JAK1 (a.a. 837-1142) catalytic domain (Homo sapiens, UniProt P23458) (P23458 whole entry, looked up, the tested form may be a part): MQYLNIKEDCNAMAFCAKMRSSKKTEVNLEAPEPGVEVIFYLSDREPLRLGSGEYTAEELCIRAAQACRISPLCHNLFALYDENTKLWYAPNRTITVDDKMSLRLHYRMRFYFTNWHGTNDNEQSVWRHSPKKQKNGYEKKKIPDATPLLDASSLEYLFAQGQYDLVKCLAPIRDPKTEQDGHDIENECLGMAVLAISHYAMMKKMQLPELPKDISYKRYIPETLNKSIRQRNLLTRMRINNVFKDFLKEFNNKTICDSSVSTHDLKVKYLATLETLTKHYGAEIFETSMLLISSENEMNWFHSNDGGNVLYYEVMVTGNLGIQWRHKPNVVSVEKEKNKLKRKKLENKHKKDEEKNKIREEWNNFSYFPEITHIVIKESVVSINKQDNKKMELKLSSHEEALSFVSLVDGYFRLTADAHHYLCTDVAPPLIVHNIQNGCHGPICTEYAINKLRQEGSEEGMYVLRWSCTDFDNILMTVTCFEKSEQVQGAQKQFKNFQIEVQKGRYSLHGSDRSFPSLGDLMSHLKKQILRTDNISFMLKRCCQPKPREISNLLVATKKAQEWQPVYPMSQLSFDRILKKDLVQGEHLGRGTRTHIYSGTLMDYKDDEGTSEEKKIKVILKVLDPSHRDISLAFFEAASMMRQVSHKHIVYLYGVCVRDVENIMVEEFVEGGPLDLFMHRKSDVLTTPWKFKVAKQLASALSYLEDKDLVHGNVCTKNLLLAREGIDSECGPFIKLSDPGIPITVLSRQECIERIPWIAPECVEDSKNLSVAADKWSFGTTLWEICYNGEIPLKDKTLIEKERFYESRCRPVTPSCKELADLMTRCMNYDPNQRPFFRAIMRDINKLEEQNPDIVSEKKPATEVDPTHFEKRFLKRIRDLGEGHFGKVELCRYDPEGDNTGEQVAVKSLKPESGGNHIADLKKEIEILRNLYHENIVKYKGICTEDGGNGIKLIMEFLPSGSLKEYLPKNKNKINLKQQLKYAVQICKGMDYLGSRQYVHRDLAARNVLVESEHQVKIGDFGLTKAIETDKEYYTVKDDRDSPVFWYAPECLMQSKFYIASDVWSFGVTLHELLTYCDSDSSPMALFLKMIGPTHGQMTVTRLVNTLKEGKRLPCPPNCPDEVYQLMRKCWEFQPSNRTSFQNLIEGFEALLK

Broadly, the IC50 is the concentration that inhibits the measured activity by half. As for `N#CCC1(n2cc(-c3ccnc4[nH]ccc34)cn2)CN(c2ccc(C(=O)NC3(C(F)(F)F)CC3)nc2)C1` [Example 40, 5-{3-(Cyanomethyl)-3-[4-(1H-pyrrolo[2,3-b]pyridin-4-yl)-1H-pyrazol-1-yl]azetidin-1-yl}-N-[1-(trifluoromethyl)cyclopropyl]pyridine-2-carboxamide], in assay [1], the JAK2/JAK1 result is listed as “A (A means greater than or equal to 10)”. For the same molecule, the IC50 in assay [2] was under 10 nM; in assay [3], 10 to 40 nM.
In the same order, the values of `N#CCC1(n2cc(-c3ncnc4[nH]ccc34)cn2)CN(c2ccc(C(=O)NC3CC(F)(F)C3)nc2)C1` [Example 12, 5-{3-(Cyanomethyl)-3-[4-(7H-pyrrolo[2,3-d]pyrimidin-4-yl)-1H-pyrazol-1-yl]azetidin-1-yl}-N-(3,3-difluorocyclobutyl)pyridine-2-carboxamide] are “A (A means greater than or equal to 10)”, under 10 nM and at most 10 nM.
Consider `C[C@H](NC(=O)c1cnc(N2CC(CC#N)(n3cc(-c4ccnc5[nH]ccc45)cn3)C2)cn1)C1CC1` [Example 41, 5-{3-(Cyanomethyl)-3-[4-(1H-pyrrolo[2,3-b]pyridin-4-yl)-1H-pyrazol-1-yl]azetidin-1-yl}-N-[(1S)-1-cyclopropylethyl]pyrazine-2-carboxamide], for which the JAK2/JAK1 entry in assay [1] is recorded as “A (A means greater than or equal to 10)”. Also, the IC50 in assay [2] was under 10 nM; in assay [3], 10 to 40 nM.
As for `N#CCC1(n2cc(-c3ccnc4[nH]ccc34)cn2)CN(c2cnc(C(=O)NCC(F)(F)F)cn2)C1` [Example 36, 5-{3-(Cyanomethyl)-3-[4-(1H-pyrrolo[2,3-b]pyridin-4-yl)-1H-pyrazol-1-yl]azetidin-1-yl}-N-(2,2,2-trifluoroethyl)pyrazine-2-carboxamide], the JAK2/JAK1 entry in assay [1] is given as “A (A means greater than or equal to 10)”. Besides, the IC50 was under 10 nM in assay [2] and 10 to 40 nM in assay [3].
Take `N#CCC1(n2cc(-c3ncnc4[nH]ccc34)cn2)CN(c2ccc(C(=O)N[C@@H](C3CC3)C(F)(F)F)cc2)C1` [Example 38, 4-{3-(Cyanomethyl)-3-[4-(7H-pyrrolo[2,3-d]pyrimidin-4-yl)-1H-pyrazol-1-yl]azetidin-1-yl}-N-[(1S)-1-cyclopropyl-2,2,2-trifluoroethyl]benzamide]: the JAK2/JAK1 entry in assay [1] is given as “A (A means greater than or equal to 10)”. Besides, the IC50 in assay [2] is under 10 nM; in assay [3] it was 10 to 40 nM.
On the same counts, the results for `C[C@H](NC(=O)c1ccc(N2CC(CC#N)(n3cc(-c4ncnc5[nH]ccc45)cn3)C2)cc1F)C1CCCCC1` [Example 15, 4-{3-(Cyanomethyl)-3-[4-(7H-pyrrolo[2,3-d]pyrimidin-4-yl)-1H-pyrazol-1-yl]azetidin-1-yl}-N-[(1S)-1-cyclohexylethyl]-2-fluorobenzamide] are “A (A means greater than or equal to 10)”, under 10 nM and 10 to 40 nM.
With `CCNC(=O)c1ccc(N2CC(CC#N)(n3cc(-c4ncnc5[nH]ccc45)cn3)C2)cn1` [Example 24, 5-{3-(Cyanomethyl)-3-[4-(7H-pyrrolo[2,3-d]pyrimidin-4-yl)-1H-pyrazol-1-yl]azetidin-1-yl}-N-ethylpyridine-2-carboxamide], in assay [1], the JAK2/JAK1 result is on record as “A (A means greater than or equal to 10)”. Besides, the IC50 is under 10 nM in assay [2] and at most 10 nM in assay [3].
On to `CC(C)NC(=O)c1cc(Cl)c(N2CC(CC#N)(n3cc(-c4ncnc5[nH]ccc45)cn3)C2)cc1F` [Example 8, 5-Chloro-4-{3-(cyanomethyl)-3-[4-(7H-pyrrolo[2,3-d]pyrimidin-4-yl)-1H-pyrazol-1-yl]azetidin-1-yl}-2-fluoro-N-isopropylbenzamide], for which, in assay [1], the JAK2/JAK1 result was “A (A means greater than or equal to 10)”. Besides, the results for the IC50 in assay [2] and in assay [3] were under 10 nM and at most 10 nM, respectively.
As to `CC(NC(=O)c1ccc(N2CC(CC#N)(n3cc(-c4ncnc5[nH]ccc45)cn3)C2)cc1)C(F)(F)F` (stereo not drawn) [Example 26, 4-{3-(Cyanomethyl)-3-[4-(7H-pyrrolo[2,3-d]pyrimidin-4-yl)-1H-pyrazol-1-yl]azetidin-1-yl}-N-(2,2,2-trifluoro-1-methylethyl)benzamide], the IC50 in assay [2] is under 10 nM.
On to `CC[C@@H](C)NC(=O)c1ccc(N2CC(CC#N)(n3cc(-c4ncnc5[nH]ccc45)cn3)C2)cc1` [Example 25, 4-{3-(Cyanomethyl)-3-[4-(7H-pyrrolo[2,3-d]pyrimidin-4-yl)-1H-pyrazol-1-yl]azetidin-1-yl}-N-[(1R)-1-methylpropyl]benzamide bis(trifluoroacetate)], for which the JAK2/JAK1 entry in assay [1] is “A (A means greater than or equal to 10)”. Moreover, the figures for the IC50 in assay [2] and in assay [3] were under 10 nM and at most 10 nM, respectively.
Regarding `C[C@H](NC(=O)c1ccc(N2CC(CC#N)(n3cc(-c4ncnc5[nH]ccc45)cn3)C2)cn1)C1CC1` [Example 11, 5-{3-(Cyanomethyl)-3-[4-(7H-pyrrolo[2,3-d]pyrimidin-4-yl)-1H-pyrazol-1-yl]azetidin-1-yl}-N-[(1S)-1-cyclopropylethyl]pyridine-2-carboxamide], the JAK2/JAK1 result in assay [1] was “A (A means greater than or equal to 10)”. For the same molecule, the values for the IC50 in assay [2] and in assay [3] were under 10 nM and at most 10 nM, respectively.
Consider `C[C@H](NC(=O)c1cc(F)c(N2CC(CC#N)(n3cc(-c4ncnc5[nH]ccc45)cn3)C2)cc1F)C(F)(F)F` [Example 28, 4-{3-(Cyanomethyl)-3-[4-(7H-pyrrolo[2,3-d]pyrimidin-4-yl)-1H-pyrazol-1-yl]azetidin-1-yl}-2,5-difluoro-N-[(1S)-2,2,2-trifluoro-1-methylethyl]benzamide], for which the JAK2/JAK1 result in assay [1] is “A (A means greater than or equal to 10)”. The figures for the IC50 in assay [2] and in assay [3] were under 10 nM and at most 10 nM, respectively.
`CC(C)NC(=O)c1cnc(N2CC(CC#N)(n3cc(-c4ncnc5[nH]ccc45)cn3)C2)cn1` [Example 18, 5-{3-(Cyanomethyl)-3-[4-(7H-pyrrolo[2,3-d]pyrimidin-4-yl)-1H-pyrazol-1-yl]azetidin-1-yl}-N-isopropylpyrazine-2-carboxamide] yielded an IC50 in assay [3] of 10 to 40 nM.
Take `CC(C)NC(=O)c1ccc(N2CC(CC#N)(n3cc(-c4ncnc5[nH]ccc45)cn3)C2)cn1` [Example 9, 5-{3-(Cyanomethyl)-3-[4-(7H-pyrrolo[2,3-d]pyrimidin-4-yl)-1H-pyrazol-1-yl]azetidin-1-yl}-N-isopropylpyridine-2-carboxamide]: in assay [1], the JAK2/JAK1 entry is reported as “A (A means greater than or equal to 10)”. Besides, the IC50 in assay [2] is under 10 nM; in assay [3], at most 10 nM.
`C[C@@H](NC(=O)c1ccc(N2CC(CC#N)(n3cc(-c4ncnc5[nH]ccc45)cn3)C2)cc1)C(F)(F)F` [Example 23, 4-{3-(Cyanomethyl)-3-[4-(7H-pyrrolo[2,3-d]pyrimidin-4-yl)-1H-pyrazol-1-yl]azetidin-1-yl}-N-[(1R)-2,2,2-trifluoro-1-methylethyl]benzamide bis(trifluoroacetate)]: the IC50 in assay [2] was under 10 nM.
As for `N#CCC1(n2cc(-c3ccnc4[nH]ccc34)cn2)CN(c2cnc(C(=O)N[C@@H](C3CC3)C(F)(F)F)cn2)C1` [Example 42, 5-{3-(Cyanomethyl)-3-[4-(1H-pyrrolo[2,3-b]pyridin-4-yl)-1H-pyrazol-1-yl]azetidin-1-yl}-N-[(1S)-1-cyclopropyl-2,2,2-trifluoroethyl]pyrazine-2-carboxamide], in assay [1], the JAK2/JAK1 result is listed as “A (A means greater than or equal to 10)”. Further, the IC50 in assay [2] is under 10 nM; in assay [3] it was 10 to 40 nM.
Consider `CN(C(=O)c1ccc(N2CC(CC#N)(n3cc(-c4ncnc5[nH]ccc45)cn3)C2)c(F)c1)C1CC1` [Example 7, 4-{3-(Cyanomethyl)-3-[4-(7H-pyrrolo[2,3-d]pyrimidin-4-yl)-1H-pyrazol-1-yl]azetidin-1-yl}-N-cyclopropyl-3-fluoro-N-methylbenzamide], for which the JAK2/JAK1 result in assay [1] is “A (A means greater than or equal to 10)”. Besides, the IC50 was under 10 nM in assay [2] and at most 10 nM in assay [3].
Take `CC(C)NC(=O)c1ccc(N2CC(CC#N)(n3cc(-c4ccnc5[nH]ccc45)cn3)C2)cc1` [Example 1, 4-{3-(Cyanomethyl)-3-[4-(1H-pyrrolo[2,3-b]pyridin-4-yl)-1H-pyrazol-1-yl]azetidin-1-yl}-N-isopropylbenzamide]: the JAK2/JAK1 result in assay [1] is given as “A (A means greater than or equal to 10)”. Further, the figures for the IC50 in assay [2] and in assay [3] were under 10 nM and 10 to 40 nM, respectively.
In the same order, the values of `C[C@H](NC(=O)c1cnc(N2CC(CC#N)(n3cc(-c4ccnc5[nH]ccc45)cn3)C2)cn1)C(F)(F)F` [Example 35, 5-{3-(Cyanomethyl)-3-[4-(1H-pyrrolo[2,3-b]pyridin-4-yl)-1H-pyrazol-1-yl]azetidin-1-yl}-N-[(1S)-2,2,2-trifluoro-1-methylethyl]pyrazine-2-carboxamide] are “A (A means greater than or equal to 10)”, under 10 nM and 10 to 40 nM.
In assay [2], `C[C@H](NC(=O)c1ccc(N2CC(CC#N)(n3cc(-c4ncnc5[nH]ccc45)cn3)C2)cc1)C(F)(F)F` [Example 19, 4-{3-(Cyanomethyl)-3-[4-(7H-pyrrolo[2,3-d]pyrimidin-4-yl)-1H-pyrazol-1-yl]azetidin-1-yl}-N-[(1S)-2,2,2-trifluoro-1-methylethyl]benzamide bis(trifluoroacetate)] returned an IC50 of under 10 nM.
Turning to `CC(C)NC(=O)c1cnc(N2CC(CC#N)(n3cc(-c4ccnc5[nH]ccc45)cn3)C2)cn1` [Example 34, 5-{3-(Cyanomethyl)-3-[4-(1H-pyrrolo[2,3-b]pyridin-4-yl)-1H-pyrazol-1-yl]azetidin-1-yl}-N-isopropylpyrazine-2-carboxamide], in assay [3], the IC50 was 10 to 40 nM.
As to `CC(C)NC(=O)c1ccc(N2CC(CC#N)(n3cc(-c4ncnc5[nH]ccc45)cn3)C2)cc1F` [Example 14, 4-{3-(Cyanomethyl)-3-[4-(7H-pyrrolo[2,3-d]pyrimidin-4-yl)-1H-pyrazol-1-yl]azetidin-1-yl}-2-fluoro-N-isopropylbenzamide], the IC50 in assay [2] was under 10 nM.

The values are drawn from patent US9611269B2, “Azetidinyl phenyl, pyridyl or pyrazinyl carboxamide derivatives as JAK inhibitors” (Incyte Corporation, priority 2011, dated 2017).
